# *1 amine or outer side, *2 acyl side, *3 side chain or, on linkers, in order; H or OH if unused. Where a SMILES comes first, the peptide text is derived from it. The star is where a group is joined. X1 = COc1ccc2c(c1)c(CC(=O)OCCS*)c(C)n2C(=O)c1ccc(Cl)cc1; Pteroyl = Nc1nc2ncc(CNc3ccc(C(=O)*)cc3)nc2c(=O)[nH]1; γGlu = O=C(O)[CH](CCC(=O)[*:2])N[*:1]
# Legend:
# [1] = molecular target: T1, folate receptors on white blood cells from mice (Mus musculus, UniProt Q05685); test: 3H-folic acid binding to white blood cells from mice; conditions: with/without 100-fold excess folic acid, FIG. 4
# T1 construct: endogenous in cells; host or cells: mouse white blood cells
# T1 sequence (Q05685 21-227): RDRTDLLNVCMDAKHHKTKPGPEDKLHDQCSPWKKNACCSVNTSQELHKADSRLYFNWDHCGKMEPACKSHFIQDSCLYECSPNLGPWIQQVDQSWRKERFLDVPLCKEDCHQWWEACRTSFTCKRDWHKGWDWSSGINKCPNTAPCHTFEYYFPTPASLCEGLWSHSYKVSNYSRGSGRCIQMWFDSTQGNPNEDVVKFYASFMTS
# Procedure: (§1) All binding experiments were conducted on ice or in a 4° C. cold room unless indicated otherwise. Folate conjugate and ^3H-folic acid binding studies were performed by incubating cells with a 100 nM concentration of the indicated folate dye conjugate for 45 minutes. […] An acidic wash to strip cell-surface bound folate conjugates was performed on indicated samples by washing the cell sample with a 150 mM NaCl solution adjusted to pH 3.5 with acetic acid. All antibody labeling was optimized by titration. Optimal labeling was most often achieved with a 1/1000-1/10,000 dilution of the manufacture's stock antibody solution. After cells were labeled with folate dye conjugates and/or antibodies, the samples were washed twice with PBS to remove non-specific binding. Analysis of folate conjugate binding and/or antibody binding was analyzed by confocal microscopy or by flow cytometry (FCS Calibur, BD, Franklin Lakes, N.J.). After washing ^3H-folic acid samples to remove non-specific binding, cells were dissolved in 0.25M NaOH and radioactivity was counted on a scintillation counter.
# [2] = test system: folate receptors on white blood cells from dogs; test: 3H-folic acid binding to white blood cells from dogs; parameters: species or system dog; conditions: with/without 100-fold excess folic acid, FIG. 4
# Procedure: as §1
# [3] = molecular target: T2, folate receptors on human peripheral blood monocytes (Homo sapiens, UniProt P14207); test: Folate dye conjugate binding to human peripheral blood monocytes, flow cytometry; conditions: for percentage of human peripheral blood monocytes bound: CD11b+ monocytes, FIG. 2; for binding to human peripheral blood monocytes: FIG. 1
# T2 construct: endogenous in cells; host or cells: human peripheral blood monocytes (PBMC isolated by Ficoll-Paque)
# T2 sequence (P14207 17-230): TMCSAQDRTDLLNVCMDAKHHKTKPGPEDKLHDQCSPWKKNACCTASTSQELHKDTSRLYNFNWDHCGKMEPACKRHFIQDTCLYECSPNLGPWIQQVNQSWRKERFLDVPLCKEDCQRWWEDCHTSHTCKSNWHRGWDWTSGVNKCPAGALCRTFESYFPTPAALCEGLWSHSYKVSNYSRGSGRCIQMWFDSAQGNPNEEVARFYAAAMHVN
# Procedure: An 8-10 ml sample of whole blood was collected in EDTA anticoagulant tubes. PBMCs were isolated from the blood samples using Ficoll-Paque Plus (Amersham Biosciences, Piscataway, N.J.) and by following the manufacture's provided protocol. Briefly, the blood sample was diluted 50:50 with a balanced salt solution (described below). 8 mL of Ficoll-Paque Plus was added to a 50 ml conical centrifuge tube. The diluted blood sample (approximately 16-20 ml) was layered on top of the Ficoll gradient. The sample was centrifuged at 400×g for 30 minutes at room temperature. Following centrifugation, the plasma layer (top clear layer) was removed using a pipette leaving the lymphocyte/monocyte layer undisturbed. The hazy cell layer immediately below the plasma layer was removed, being careful to remove the entire cell interface but a minimum amount of the Ficoll layer. The isolated cells were put into a sterile 50 ml conical centrifuge tube and diluted 3-fold (vol/vol) using the balanced salt solution. The resulting cell solution was gently mixed and centrifuged at 100×g for 10 minutes at room temperature to pellet the cells. The supernatant was removed and the cells were resuspended in folate deficient RPMI 1640 medium supplemented with 10% heat-inactivated FBS, penicillin (100 IU/ml) and streptomycin (100 μg/ml). Cells were seeded in microcentrifuge tubes or microscopy chambers as dictated by the experiment.
# as §1
# [4] = test system: folate receptors on peripheral blood monocytes of dogs; test: Folate dye conjugate binding to peripheral blood monocytes from dogs, flow cytometry; parameters: species or system dog; conditions: with/without 100-fold excess folic acid, FIG. 5, FIG. 6
# Procedure: (§2) An 8-10 ml sample of whole blood was collected in EDTA anticoagulant tubes. PBMCs were isolated from the blood samples using Ficoll-Paque Plus (Amersham Biosciences, Piscataway, N.J.) and by following the manufacture's provided protocol. Briefly, the blood sample was diluted 50:50 with a balanced salt solution (described below). 8 mL of Ficoll-Paque Plus was added to a 50 ml conical centrifuge tube. The diluted blood sample (approximately 16-20 ml) was layered on top of the Ficoll gradient. The sample was centrifuged at 400×g for 30 minutes at room temperature. Following centrifugation, the plasma layer (top clear layer) was removed using a pipette leaving the lymphocyte/monocyte layer undisturbed. The hazy cell layer immediately below the plasma layer was removed, being careful to remove the entire cell interface but a minimum amount of the Ficoll layer. […]
# (§3) All binding experiments were conducted on ice or in a 4° C. cold room unless indicated otherwise. […] Analysis of folate conjugate binding and/or antibody binding was analyzed by confocal microscopy or by flow cytometry (FCS Calibur, BD, Franklin Lakes, N.J.). After washing ^3H-folic acid samples to remove non-specific binding, cells were dissolved in 0.25M NaOH and radioactivity was counted on a scintillation counter.
# [5] = test system: folate receptors on peripheral blood monocytes of horses; test: Folate-FITC binding to peripheral blood monocytes from horses, flow cytometry; parameters: species or system horse; conditions: with/without 100-fold excess folic acid, FIG. 5
# Procedure: as §2, §3
# [6] = test system: adjuvant-induced arthritis; test: Adjuvant-induced arthritis in rats, paw swelling; format: in vivo, rat
# Procedure: Arthritis was induced in 150-200 g female Lewis rats (Harlan, Indianapolis, Ind.), n=2-5/dose group. Briefly, 0.5 mg of heat-killed […] butericum, suspended in mineral oil (5 mg/ml), was injected on day 0 into the left hind foot of rats following anesthesia with ketamine and xylazine. All treated animals developed arthritis, as evidenced by dramatic swelling in the injected paw, progressive swelling in all noninjected limbs due to the systemic progression of arthritis, and radiographic analysis of affected limbs. All rats were maintained on a folate-deficient diet (DYETS, Inc., Bethlehem, Pa.) for 3 weeks prior to administration of therapeutic agents in order to lower serum folate levels to physiologically relevant concentrations. Control rats were also maintained on a folate-deficient diet but were not induced to develop arthritis.
# The protocol described in Example 32 for arthritis induction was followed. The efficacy of folate-flumethasone (50 nmoles/kg/day) and folate-indomethacin (100 or 250 nmoles/kg/day) against adjuvant-induced arthritis in rats was investigated. Rats were injected intraperitoneally with either saline (control rats) or folate-flumethasone (50 nmoles/kg/day) or folate-indomethacin (100 or 250 nmoles/kg/day) starting at day 4. The sudden increase in swelling of the adjuvant-injected foot is due to influx of neutrophils which have no folate receptors. […]
# [7] = absence of unlabeled folic acid
# [8] = presence of a 100-fold excess of unlabeled folic acid
smiles,measurement,setting,value
Nc1nc2ncc(CNc3ccc(C(=O)N[C@@H](CCC(=O)O)C(=O)O)cc3)nc2c(=O)[nH]1 [^3H-Folic acid],folate receptor detection on white blood cells,[1],detectable
same,folate receptor detection on white blood cells,[2],detectable
Nc1nc2ncc(CNc3ccc(C(=O)NC(CCC(=O)NCCNC(=S)Nc4ccc(C(=O)O)c(-c5c6ccc(=O)cc-6oc6cc(O)ccc56)c4)C(=O)O)cc3)nc2c(=O)[nH]1 (stereo not drawn) [folate-FITC],percentage of human peripheral blood monocytes bound,[3]; [7],45.9%
same,percentage of human peripheral blood monocytes bound,[3]; [8],2%
same,binding to human peripheral blood monocytes,[3]; [7],bound
same,folate receptor detection on human peripheral blood monocytes,"[3]; healthy humans and patients with rheumatoid arthritis, osteoarthritis, fibromyalgia, FIG. 8",detectable
same,folate receptor detection on human peripheral blood monocytes,"[3]; patients with rheumatoid arthritis over the course of therapy, FIG. 10",detectable
same,binding to human peripheral blood monocytes,[3]; [8],competed
same,folate receptor detection on peripheral blood monocytes,[4],detectable
same,folate receptor detection on peripheral blood monocytes,[5],detectable
CC1CC2C3CC(F)C4=CC(=O)C=CC4(C)C3(F)C(O)CC2(C)C1(O)C(=O)COC(=O)OCCSSCC(NC(=O)CCC(NC(=O)c1ccc(NCc2cnc3nc(N)[nH]c(=O)c3n2)cc1)C(=O)O)C(=O)O (stereo not drawn) [folate-flumethasone],effect on paw swelling (left foot dimensions) after about 7 days,"[6]; 50 nmoles/kg/day intraperitoneally starting at day 4, FIG. 9",potent therapeutic effects
COc1ccc2c(c1)c(CC(=O)OCCSSCC(NC(=O)C(CC(=O)O)NC(=O)C(CC(=O)O)NC(=O)C(CCCNC(=N)N)NC(=O)C(CC(=O)O)NC(=O)CCC(NC(=O)c1ccc(NCc3cnc4nc(N)[nH]c(=O)c4n3)cc1)C(=O)O)C(=O)O)c(C)n2C(=O)c1ccc(Cl)cc1 (stereo not drawn) [folate-indomethacin] ({Pteroyl-γGlu}-DRDDC(X1)-OH; configuration not given here),effect on paw swelling (left foot dimensions) after about 7 days,"[6]; 100 or 250 nmoles/kg/day intraperitoneally starting at day 4, FIG. 9",potent therapeutic effects

# Source: US9731035B2, “Method of imaging osteoarthritis using a folate conjugate” (Purdue Research Foundation, priority 2005, dated 2017)
